Measurements taken from patent publication US20120316192A1, “SUBSTITUTED INDOLO [2,3-A] QUINOLIZINES” (priority 2011, published 2012).

System: HeLa cells
Assay: FACS analysis of the cell cycle (propidium iodide DNA content)
Format: cell-based, human
Details: 1 μM nocodazole, 24 h after treatment
Experimental: HeLa human cervical carcinoma cell line, the human breast cancer cell line MCF7, and the human colorectal carcinoma cell line SW480 were maintained in Dulbecco's Modified Eagle's medium (DMEM, PAA, Pasching Austria). The colorectal cell line HT29 was cultured in McCoy's 5A medium (PAA, Pasching, Austria). DMEM medium was supplemented with 10% fetal calf serum, sodium pyruvate, non-essential amino acids, penicillin and streptomycin, McCoy's 5A medium was supplemented with 10% fetal calf serum, penicillin and streptomycin. All cell lines were cultured at 37° C. in a 5% CO2 humidified atmosphere. Further, fluorescent activated cell sorting (FACS) was used successfully to analyze the cell cycle and mitotic arrest under the influence of indoloquinolizines. HeLa cells were fixed and stained for FACS analysis 24 h after compound treatment. Cells were trypsinized and combined with any floating cells, pelleted, and resuspended in 1 ml PBS. Ice cold ethanol (70%) was added, and samples were incubated at −20° C. until analysis. After fixation the cells were pelleted, resuspended in 500 μl staining solution (50 μg/ml propidium iodide, 0.1 mg/ml RNase A, 0.05% Triton X-100) and incubated for 40 min at 37° C. 3 ml PBS were added; the cells were pelleted again and resuspended in 500 μl PBS. The DNA content was measured with a Becton Dickinson LSRII and analyzed with FlowJo 7.5 software. The cell cycle of compound treated HeLa cells was analyzed by fluorescence activated cell sorting (FIG. 1). […] A similar distribution is given in (−)-1-01 treated cells (FIGS. 1c and 1d); here 9% are in G1 and 38% in G2/M phase (25 μM) respectively; 8% in G1 and 40% in G2/M phase (50 μM). This means that the mitotic index is increased by more than two fold (from 0.16 to 0.38 respectively 0.40), indicating a mitotic arrest after compound treatment.

| SMILES | cells in G1 phase | cells in G2/M phase |
| --- | --- | --- |
| COC(=O)Nc1nc2ccc(C(=O)c3cccs3)cc2[nH]1 [nocodazole, reference compound] | 4% | 40% |

System: all cell lines but Saos2
Assay: Apo-ONE homogeneous caspase-3/7 assay (apoptosis), summary statement
Format: cell-based
Details: all cell lines but Saos2, 42 h
Experimental: HeLa human cervical carcinoma cell line, the human breast cancer cell line MCF7, the African green monkey kidney cell line BS-C-1 and the human colorectal carcinoma cell lines HCT116 and SW480 were maintained in Dulbecco's Modified Eagle's medium (DMEM, PAA, Pasching Austria). The colorectal cell line HT29 was cultured in McCoy's 5A medium (PAA, Pasching, Austria). The prostate carcinoma cells PC3 and the osteosarcoma cells Saos2 were cultured in RPMI medium (PAA, Pasching Austria). All media were supplemented with 10% fetal calf serum, L-glutamine, penicillin and streptomycin. All cell lines were maintained at 37° C. in a 5% CO2 humidified atmosphere.
Therefore we measured the caspase-3/7 activity in different cell lines with the Apo-ONE® homogeneous caspase-3/7 assay.
Caspase-3/7 activities were determined using the Apo-ONE® homogeneous caspase-3/7 assay (Promega, Mannheim Germany) according to the manufacturer's protocol. Briefly, cells were plated in quadruplicates in 384-well cell culture plate. After 24 hours cells were exposed for 42 hours to the compounds at different concentrations. Control cells were treated with 0.5% DMSO or staurosporine (STS). Subsequently cells were lysed with a lysis buffer containing the caspase-3/7 substrate Z-DEVD-R110 and were incubated at room temperature until further analysis. The fluorescence was detected with the TECAN Inifinite® M200 plate reader at excitation/emission wavelength 485/520 nm. The blank value was subtracted from each value and the relative caspase-3/7 activity was calculated compared to the DMSO treated cells.
These findings correlate with our results from the cell viability assays for these indoloquinolizine.

| SMILES | impact on the apoptosis |
| --- | --- |
| COC(=O)C1=CC(C(=O)c2ccccc2O)=CN2CCc3c([nH]c4ccccc34)C12C(=O)OC (single isomer, unassigned; (+)) [(+)-1-01, Dimethyl-3-(2-hydroxybenzoyl)-6,7,12,12b-tetrahydroindolo[2,3a]quinolizine-1,12b-dicarboxylate] | did not have any impact on the apoptosis |
| COC(=O)C1=CC(C(=O)c2ccccc2O)=CN2CCc3c([nH]c4ccc(OC)cc34)C12C(=O)OC (single isomer, unassigned; (+)) [(+)-1-04, Dimethyl-3-(2-hydroxybenzoyl)-9-methoxy-6,7,12,12b-tetrahydro-indolo[2,3-a]quinolizine-1,12b-dicarboxylate] | did not have any impact on the apoptosis |

System: not given
Assay: not given
Details: not given

| SMILES | melting point |
| --- | --- |
| CC(C)(C)OC(=O)C1=CC(C(=O)c2ccccc2O)=CN2CCc3c([nH]c4ccccc34)C12C(=O)OC(C)(C)C (centres unmarked) [Compound 1-54, di-tert-butyl 3-(2-hydroxybenzoyl)-6,7,12,12b-tetrahydroindolo[2,3-a]quinolizine-1,12b-dicarboxylate] | 237 °C (dec.) |
| COC(=O)C1=CC(C(=O)c2ccccc2O)=CN2[C@H](C(=O)OC)Cc3c([nH]c4ccccc34)C12C(=O)OC (stereo partly drawn) [Compound 1-28, (6S)-trimethyl 3-(2-hydroxybenzoyl)-6,7,12,12b-tetrahydroindolo[2,3-a]quinolizine-1,6,12b-tricarboxylate] | 244 °C (dec.) |
| COC(=O)C1=CC(C(=O)c2cc(Br)cc(Br)c2O)=CN2CCc3c([nH]c4ccccc34)C12C(=O)OC (centres unmarked) | 131 °C |
| COC(=O)C1=CC(C(=O)c2ccc(OCc3ccccc3)c(C)c2O)=CN2CCc3c([nH]c4ccccc34)C12C(=O)OC (centres unmarked) [Compound 1-23, Dimethyl 3-(4-(benzyloxy)-2-hydroxy-3-methylbenzoyl)-6,7,12,12b-tetrahydroindolo[2,3-a]quinolizine-1,12b-dicarboxylate] | 216 °C |
| COC(=O)C1=CC(C(=O)c2cc(Cl)cc(Cl)c2O)=CN2CCc3c([nH]c4ccccc34)C12C(=O)OC (centres unmarked) | 238.2 °C (dec.) |
| COC(=O)C1=CC(C(=O)c2cc(Cl)ccc2O)=CN2CCc3c([nH]c4ccccc34)C12C(=O)OC (centres unmarked) | 232 °C (dec.) |
| COC(=O)C1=CC(C(=O)c2c(O)cccc2OC)=CN2CCc3c([nH]c4ccccc34)C12C(=O)OC (centres unmarked) | 237 °C (dec.) |
| COC(=O)C1=CC(C(=O)c2ccccc2O)=CN2CCc3c([nH]c4ccc(C)cc34)C12C(=O)OC (centres unmarked) | 175 °C |
| COC(=O)C1=CC(C(=O)c2ccccc2O)=CN2CCc3c([nH]c4ccc(OC)cc34)C12C(=O)OC (centres unmarked) | 163 °C (dec.) |
| COC(=O)C1=CC(C(=O)c2ccccc2O)=CN2CCc3c([nH]c4ccccc34)C12C(=O)OC (centres unmarked) | 258 °C (dec.) |
| COC(=O)C1=CC(C(=O)c2ccccc2O)=CN2CCc3c([nH]c4ccc(O)cc34)C12C(=O)OC (centres unmarked) | 180 °C (dec.) |
| COC(=O)C1=CC(C(=O)c2ccccc2OC)=CN2CCc3c([nH]c4ccccc34)C12C(=O)OC (centres unmarked) | 261 °C (dec.) |
| COC(=O)C1=CC(C(=O)c2cc(C)ccc2O)=CN2CCc3c([nH]c4ccccc34)C12C(=O)OC (centres unmarked) | 197 °C |

Next, values leading:

| melting point | SMILES |
| --- | --- |
| 228 °C | CCOC(=O)C1=CC(C(=O)c2cc(C)ccc2O)=CN2CCc3c([nH]c4ccc(OC)cc34)C12C(=O)OCC (centres unmarked) [Compound 1-16, Diethyl-3-(2-hydroxy-5-methylbenzoyl)-9-methoxy-6,7,12,12b-tetrahydroindolo[2,3-a]quinolizine-1,12b-dicarboxylate] |
| 220 °C (dec.) | COC(=O)C1=CC(C(=O)c2cc(Br)ccc2O)=CN2CCc3c([nH]c4ccccc34)C12C(=O)OC (centres unmarked) |
| 225 °C | CCOC(=O)C1=CC(C(=O)c2cc(Br)ccc2O)=CN2CCc3c([nH]c4ccc(OC)cc34)C12C(=O)OCC (centres unmarked) [Compound 1-22, Diethyl-3-(5-bromo-2-hydroxybenzoyl)-9-methoxy-6,7,12,12b-tetrahydroindolo[2,3-a]quinolizine-1,12b-dicarboxylate] |
| 182 °C | COC(=O)C1=CC(C(=O)c2ccccc2O)=CN2CCc3c([nH]c4ccc(Br)cc34)C12C(=O)OC (centres unmarked) |
| 197 °C (dec.) | COC(=O)C1=CC(C(=O)c2cc(Br)ccc2O)=CN2CCc3c([nH]c4ccc(OC)cc34)C12C(=O)OC (centres unmarked) [Compound 1-05, Dimethyl-3-(5-bromo-2-hydroxybenzoyl)-9-methoxy-6,7,12,12b-tetrahydro-indolo[2,3-a]quinolizine-1,12b-dicarboxylate] |
| 209 °C | CCOC(=O)C1=CC(C(=O)c2ccccc2O)=CN2CCc3c([nH]c4ccccc34)C12C(=O)OCC (centres unmarked) |
| 215 °C | CCOC(=O)C1=CC(C(=O)c2cc(Br)ccc2O)=CN2CCc3c([nH]c4ccccc34)C12C(=O)OCC (centres unmarked) [Compound 1-14, Diethyl-3-(5-bromo-2-hydroxybenzoyl)-6,7,12,12b-tetrahydro-indolo[2,3-a]quinolizine-1,12b-dicarboxylate] |
| 208 °C | CCOC(=O)C1=CC(C(=O)c2cc(C)ccc2O)=CN2CCc3c([nH]c4ccccc34)C12C(=O)OCC (centres unmarked) [Compound 1-03, Diethyl-3-(2-hydroxy-5-methylbenzoyl)-6,7,12,12b-tetrahydroindolo-[2,3-a]quinolizine-1,12b-dicarboxylate] |
| 216 °C | CCOC(=O)C1=CC(C(=O)c2cc(Cl)ccc2O)=CN2CCc3c([nH]c4ccccc34)C12C(=O)OCC (centres unmarked) [Compound 1-19, Diethyl-3-(5-chloro-2-hydroxybenzoyl)-6,7,12,12b-tetrahydro-indolo[2,3-a]quinolizine-1,12b-dicarboxylate] |
| 212 °C | CCOC(=O)C1=CC(C(=O)c2ccccc2O)=CN2CCc3c([nH]c4ccc(OC)cc34)C12C(=O)OCC (centres unmarked) [Compound 1-13, Diethyl-3-(2-hydroxybenzoyl)-9-methoxy-6,7,12,12b-tetrahydro-indolo[2,3-a]quinolizine-1,12b-dicarboxylate] |
| 196 °C | CCOC(=O)C1=CC(C(=O)c2cc(Cl)c(C)cc2O)=CN2CCc3c([nH]c4ccccc34)C12C(=O)OCC (centres unmarked) [Compound 1-18, Diethyl-3-(5-chloro-2-hydroxy-4-methylbenzoyl)-6,7,12,12b-tetrahydroindolo[2,3-a]quinolizine-1,12b-dicarboxylate] |
| 230 °C | CCOC(=O)C1=CC(C(=O)c2cc(Cl)ccc2O)=CN2CCc3c([nH]c4ccc(OC)cc34)C12C(=O)OCC (centres unmarked) [Compound 1-20, Diethyl-3-(5-chloro-2-hydroxybenzoyl)-9-methoxy-6,7,12,12b-tetrahydroindolo[2,3-a]quinolizine-1,12b-dicarboxylate] |
